Data set [1] in a line: Mammalian cytotoxicity, MTT, HepG2. Type of data set: cell-based, human. The conditions noted are these: human, HepG2 hepatocellular carcinoma cells. The protocol: Hepatocellular carcinoma (HepG2), mouse fibroblast (3T3), human lung (HPL1A), and human keratinocyte (HaCat) cells were cultured in Dulbecco modified eagle media (DMEM) containing 10% fetal bovine serum (FBS) and 1% penicillin, streptomycin, and glutamine (PSG) at 37° C. and 5% CO2. Cells were collected and adjusted to […] to 4×10^5 cells/mL in phenol-red free DMEM and plated (100 μL) 96 well plates. 2-fold serial dilutions of 10× peptoid (11.1 μL) were added to each well in triplicate. Water (vehicle) was used as a negative control. Plates were incubated at 37° C. in 5% CO2 for 72 hours. Thiazolyl blue tetrazolium bromide (MTT) was added to each well (5 mg/mL; 20 μL) and incubated for 3 hours. Media was removed, DMSO (100 μL) was added, and plates were incubated at 37° C. for 10 minutes. Plates were read on a SpectraMax M5 plate reader (Abs. 570 nm). The concentration of compound resulting in a 50% reduction in growth compared to control (toxicity dose 50%; TD50) was determined using GraFit. This procedure was repeated three times on separate days.
Cytotoxicity against HepG2 hepatocellular carcinoma cells was done as previously described (Green et al. ACS infectious diseases, (2022); Corson et al. ACS medicinal chemistry letters 7 12, 1139-1144 (2016)). HepG2 cells were maintained in culture in T-75 flasks using Dulbecco's Modified Eagle's Media (DMEM) with phenol red pH indicator and supplemented with 10% fetal bovine serum (FBS) and 1% penicillin, streptomycin, and glutamine (PSG). The cells were incubated at 37° C. and 5% CO2 in a humidified incubator until desired confluency was achieved. The media was removed from the flask, and the cells were washed 1× with 10 mL of phosphate-buffered saline (PBS; 11.8 mM phosphate, 140.4 mM NaCl; pH 7.4) which was then discarded. To remove the adhered cells from the flask, 2 mL of trypsin was added, and the cells were incubated for 10 minutes. To quench the trypsin, 8 mL of phenol red-free DMEM with 10% FBS and 1% PGS was added, and the cell solution was transferred to a 15 mL conical tube. After the cells were pelleted by centrifugation at 1000 rpm for 5 minutes, the supernatant was poured off and cells resuspended in the volume of phenol red-free media needed for the assay. Cell concentration was determined by counting with a hemocytometer, and the solution was diluted with media until a concentration of 1×10^5 cells/mL was achieved. A 100 μL aliquot of cell solution was added to each well of a 96-well plate, apart from the 3 wells used for a media control. Cells were incubated for 2-3 hours at 37° C. and 5% CO2 until cells were adherent.
Compound stocks of 20 mg/mL were used to prepare 2-fold serial dilutions of each compound in sterile water, giving final concentrations of 200, 100, 50, 25, 12.5, 6.25, 3.13 and 1.56 μg/mL. 11.1 μL of prepared compound solutions was added to the appropriate wells in triplicate. A negative vehicle control of sterile water, as well as the aforementioned media control, were used. The plates were incubated for 72 hours at 37° C. and 5% CO2. After incubation, 20 μL of 5 mg/mL 3-(4,5-dimethylthiazol-2-yl)-2,5-diphenyltetrazolium bromide (MTT) in water was added to each well. The plate was incubated for 3 hours at 37° C. and 5% CO2. Media was removed from each well using a sterile glass Pasteur pipette. 100 μL of DMSO was added to each well and incubated for 15 minutes at 37° C. Absorbance was read at 570 nm using a SpectraMax M5 Plate Reader. This MTT assay was performed in biological duplicate unless discrepant results were observed. If this was the case, the assay was performed in biological triplicate for further verification. The reported value is the average of biological replicates with standard deviation.

The next data set concerns C. neoformans. Type of data set: cell-based, Cryptococcus neoformans. The conditions noted are these: 72 h. The protocol:
The minimum inhibitory concentration (MIC) of peptoids against fungal pathogens C. albicans and C. neoformans was determined following CLSI guidelines (CLSI. Reference method for broth dilution antifungal susceptibility testing of yeasts; approved standard-third edition; CLSI document M27-A3. (Clinical and Laboratory Standards Institute, 2008). […] This inoculant was diluted 1:100 into RPMI-MOPS and then further diluted 1:20 into RPMI-MOPS. 198 μL of inoculant was seeded into each well of a 96 well black-walled plate. 2-fold serial dilutions of 100× peptoid solutions were prepared in water and 2 μL of peptoid were added to each well in triplicate. […] MIC was defined as the lowest concentration of compound preventing fungal growth. This assay was repeated 3 times on separate days with each compound. […] The addition of 0.1 mL cell solution to 9.9 mL of RPMI-MOPS produced a 1:100 cell solution. After vortexing, 0.5 mL of the […] was added to 9.5 mL RPMI-MOPS to produce a 1:20 cell solution. 198 μL of the 1:20 solution was added to the wells of an opaque 96-well plate, apart from the wells designated for the medial control. […] Amphotericin B was used as a positive control, and sterile water was used for the vehicle control. The plates were incubated for 72 hours at 35° C. After incubation, the concentration of compound resulting in no visual growth was recorded as the MIC. All assays performed in biological triplicate on different days.

Each structure is given as a SMILES string. Values after ≈ are worked out from the molar mass of the structure shown. Like-named read-outs stand apart in the source and are kept apart here. Where a SMILES comes first, the peptide text is derived from it. [ ]: non-standard residue; d: D form. The star is where a group is joined. Gly(N(CH2)2(3-indolyl)) = O=C(O)CNCCc1c[nH]c2ccccc12; Gly(Nα-4-Cl-benzyl) = O=C(O)CNCc1ccc(Cl)cc1; N(4-Br-benzyl)Gly = O=C(O)CNCc1ccc(Br)cc1; N(tridecyl)Gly = CCCCCCCCCCCCCNCC(=O)O; NBzl(4-I)Gly = O=C(O)CNCc1ccc(I)cc1; Gly(N-2-aminoethyl) = NCCNCC(=O)O; NFurfurylGly = O=C(O)CNCc1ccco1; X2 = CCCCCCCCN(CCCCCCCC)CC(=O)*; Gly(N-cHex) = O=C(O)CNC1CCCCC1; X1 = CCCCCCN(CCCCCC)CC(=O)*; Nphe = O=C(O)CNCc1ccccc1; Nlys = NCCCCNCC(=O)O Where only a bound is given, the exact number is not on record here.

Turning to `CCCCCCCCCCCCCNCC(=O)N(CC(=O)N(CCCCN)CC(=O)N(CCCCN)CC(=O)N(CC(N)=O)C1CCCCC1)C1CCCCC1` [Compound 2] (H-[N(tridecyl)Gly][Gly(N-cHex)][Nlys][Nlys][Gly(N-cHex)]-NH2), the CC50 at 72 h in data set [1] amounted to 165 ± 97 µg/mL (≈ 208 µM). Also, in the data set with C. neoformans, the “C. neoformans MIC” value was 3.13 µg/mL.

Consider `CCCCCCN(CCCCCC)CC(=O)N(CC(=O)N(CCCCN)CC(=O)N(CCN)CC(=O)N(CC(N)=O)C1CCCCC1)C1CCCCC1` [Compound 6] (X1-[Gly(N-cHex)][Nlys][Gly(N-2-aminoethyl)][Gly(N-cHex)]-NH2), for which, in data set [1] (Example 2, 72 hours, MTT, read-out: HepG2 TD50), the CC50 at 72 h was more than 200 µg/mL. Besides, the “C. neoformans MIC” value in the data set on C. neoformans was found to be 100 µg/mL.

`CCCCCCCCN(CCCCCCCC)CC(=O)N(CC(=O)N(CCCCN)CC(=O)N(CCN)CC(=O)N(CC(N)=O)C1CCCCC1)C1CCCCC1` [Compound 7] (X2-[Gly(N-cHex)][Nlys][Gly(N-2-aminoethyl)][Gly(N-cHex)]-NH2) returned a CC50 at 72 h in data set [1] of 162 ± 29 µg/mL (≈ 201 µM). In addition, the “C. neoformans MIC” value in the data set on C. neoformans was determined as 6.25 µg/mL.

Molecule `CCCCCCCCCCCCCNCC(=O)N(CC(=O)N(CCCCN)CC(=O)N(CCN)CC(=O)N(CC(N)=O)Cc1ccccc1)Cc1ccccc1` [Compound 15] (H-[N(tridecyl)Gly][Nphe][Nlys][Gly(N-2-aminoethyl)][Nphe]-NH2) yielded a CC50 at 72 h in data set [1] of 145 ± 96 µg/mL (≈ 186 µM). Further, in the data set with C. neoformans, the “C. neoformans MIC” value is 1.56 to 3.13 µg/mL.

`CCCCCCCCCCCCCNCC(=O)N(CC(=O)N(CCCCN)CC(=O)N(CCN)CC(=O)N(CC(N)=O)Cc1ccc(Cl)cc1)Cc1ccc(Cl)cc1` [Compound 18] (H-[N(tridecyl)Gly][Gly(Nα-4-Cl-benzyl)][Nlys][Gly(N-2-aminoethyl)][Gly(Nα-4-Cl-benzyl)]-NH2) gave a CC50 at 72 h in data set [1] of 71.8 ± 24 µg/mL (≈ 84.7 µM). In addition, in the data set with C. neoformans, the “C. neoformans MIC” value worked out at 3.13 µg/mL.

Regarding `CCCCCCCCCCCCCNCC(=O)N(CC(=O)N(CCCCN)CC(=O)N(CCN)CC(=O)N(CC(N)=O)Cc1ccc(Br)cc1)Cc1ccc(Br)cc1` [Compound 19] (H-[N(tridecyl)Gly][N(4-Br-benzyl)Gly][Nlys][Gly(N-2-aminoethyl)][N(4-Br-benzyl)Gly]-NH2), in data set [1], the CC50 at 72 h was 72.4 ± 20 µg/mL (≈ 77.3 µM). In addition, the “C. neoformans MIC” value in the data set on C. neoformans was found to be 3.13 µg/mL.

In turn, `CCCCCCCCCCCCCNCC(=O)N(CC(=O)N(CCCCN)CC(=O)N(CCN)CC(=O)N(CC(N)=O)Cc1ccc(I)cc1)Cc1ccc(I)cc1` [Compound 20] (H-[N(tridecyl)Gly][NBzl(4-I)Gly][Nlys][Gly(N-2-aminoethyl)][NBzl(4-I)Gly]-NH2) displayed a CC50 at 72 h in data set [1] of 72.2 ± 24 µg/mL (≈ 70 µM). In addition, the “C. neoformans MIC” value in the data set on C. neoformans turned out to be 6.25 µg/mL.

In data set [1], `CCCCCCCCCCCCCNCC(=O)N(CC(=O)N(CCCCN)CC(=O)N(CCN)CC(=O)N(CC(N)=O)c1cccc2ccccc12)c1cccc2ccccc12` [Compound 21] displayed a CC50 at 72 h of 118 ± 19 µg/mL (≈ 139 µM). For the same molecule, the “C. neoformans MIC” value in the data set on C. neoformans worked out at 6.25 µg/mL.

In data set [1], `CCCCCCCCCCCCCNCC(=O)N(CC(=O)N(CCCCN)CC(=O)N(CCN)CC(=O)N(CC(N)=O)c1ccc2c(c1)CCC2)c1ccc2c(c1)CCC2` [Compound 22] yielded a CC50 at 72 h of 91 ± 4 µg/mL (≈ 109 µM). The “C. neoformans MIC” value with C. neoformans was 1.56 to 3.13 µg/mL.

On to `CCCCCCCCCCCCCNCC(=O)N(CCc1c[nH]c2ccccc12)CC(=O)N(CCCCN)CC(=O)N(CCN)CC(=O)N(CCc1c[nH]c2ccccc12)CC(N)=O` [Compound 23] (H-[N(tridecyl)Gly][Gly(N(CH2)2(3-indolyl))][Nlys][Gly(N-2-aminoethyl)][Gly(N(CH2)2(3-indolyl))]-NH2), for which the CC50 at 72 h in data set [1] is 85 ± 10 µg/mL (≈ 96 µM). In addition, in the data set on C. neoformans, the “C. neoformans MIC” value lay within 1.56 to 3.13 µg/mL.

In data set [1], `CCCCCCCCCCCCCNCC(=O)N(CC(=O)N(CCCCN)CC(=O)N(CCN)CC(=O)N(CC(N)=O)Cc1ccco1)Cc1ccco1` [Compound 24] (H-[N(tridecyl)Gly][NFurfurylGly][Nlys][Gly(N-2-aminoethyl)][NFurfurylGly]-NH2) yielded a CC50 at 72 h of 143 ± 94 µg/mL (≈ 188 µM). Besides, in the data set on C. neoformans, the “C. neoformans MIC” value was 3.13 to 6.25 µg/mL.

These data come from patent publication US20240352066A1, “ANTIMICROBIAL COMPOUNDS AND THE METHOD OF USE” (priority 2021, published 2024).
